Experimental data: ChEMBL document CHEMBL1201862, “PubChem BioAssay data set” (2004)
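Dose response: 5 concentrations. Exposure: 48 h. Format: 96-well plates. Endpoint: linear interpolation; highest concentration if not reached. Abbreviation: GI50, concentration required for 50% inhibition of growth.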 Calls of active or inactive are those of the source. Rule as the data show it: active = GI50 up to about 1.1 µM and inactive = higher.

Columns and labels:
Test in all cases: growth of human tumour cells (NCI), 48 h
SF-539 = tested on: SF-539
SW-620 = tested on: SW-620
SK-MEL-5 = tested on: SK-MEL-5
LOX IMVI = tested on: LOX IMVI
MCF7 = tested on: MCF7
KM12 = tested on: KM12
HOP-62 = tested on: HOP-62
COLO 205 = tested on: COLO 205
M14 = tested on: M14
UACC-62 = tested on: UACC-62
IGROV-1 = tested on: IGROV-1
PC-3 = tested on: PC-3
OVCAR-5 = tested on: OVCAR-5
ACHN = tested on: ACHN
NCI-H460 = tested on: NCI-H460
MDA-MB-231 = tested on: MDA-MB-231
UO-31 = tested on: UO-31
HL-60 = tested on: HL-60

| Structure (SMILES) | GI50 (SF-539) | GI50 (SW-620) | GI50 (SK-MEL-5) | GI50 (LOX IMVI) | GI50 (MCF7) | GI50 (KM12) | GI50 (HOP-62) | GI50 (COLO 205) | GI50 (M14) | GI50 (UACC-62) | GI50 (IGROV-1) | GI50 (PC-3) | GI50 (OVCAR-5) | GI50 (ACHN) | GI50 (NCI-H460) | GI50 (MDA-MB-231) | GI50 (UO-31) | GI50 (HL-60) |
| --- | --- | --- | --- | --- | --- | --- | --- | --- | --- | --- | --- | --- | --- | --- | --- | --- | --- | --- |
| COc1ccc2c(Cl)cc(NC(=S)Nc3ccccc3)nc2c1 | 32.6 µM (inactive) | 26.4 µM (inactive) | 33.6 µM (inactive) | 21.1 µM (inactive) | 25.8 µM (inactive) | 18.7 µM (inactive) | 35.5 µM (inactive) | 31.2 µM (inactive) | 18.3 µM (inactive) | 17.2 µM (inactive) | 20.8 µM (inactive) | 28.6 µM (inactive) | 30.1 µM (inactive) | 38.5 µM (inactive) | 32.3 µM (inactive) | 26.4 µM (inactive) | – | – |
| C[C@H](c1ccccc1)N1C(=O)[C@@H](OCc2ccccc2)[C@H]1[C@H](COC(=O)COCc1ccccc1)OCc1ccccc1 | – | > 100 µM (inactive) | 58.7 µM (inactive) | > 100 µM (inactive) | > 100 µM (inactive) | > 100 µM (inactive) | > 100 µM (inactive) | > 100 µM (inactive) | > 100 µM (inactive) | > 100 µM (inactive) | > 100 µM (inactive) | 77.4 µM (inactive) | > 100 µM (inactive) | > 100 µM (inactive) | – | > 100 µM (inactive) | 7.69 µM (inactive) | – |
| O=[N+]([O-])c1cc([N+](=O)[O-])c(Nn2c3ccccc3c3ccccc32)c([N+](=O)[O-])c1 | 2.12 µM (inactive) | 3.02 µM (inactive) | 1.94 µM (inactive) | – | 1.25 µM (inactive) | 0.622 µM (active) | 1.87 µM (inactive) | 2.56 µM (inactive) | 2.17 µM (inactive) | 0.933 µM (active) | 2.18 µM (inactive) | 1.25 µM (inactive) | 4.63 µM (inactive) | 1.2 µM (inactive) | 1.86 µM (inactive) | – | 2.07 µM (inactive) | 3.51 µM (inactive) |
| N#CCCN(CCC#N)c1ccc(C(/N=N/c2ccccc2)=N\c2ccccc2)cc1 | > 100 µM (inactive) | > 100 µM (inactive) | > 100 µM (inactive) | – | > 100 µM (inactive) | > 100 µM (inactive) | > 100 µM (inactive) | > 100 µM (inactive) | > 100 µM (inactive) | > 100 µM (inactive) | > 100 µM (inactive) | > 100 µM (inactive) | > 100 µM (inactive) | > 100 µM (inactive) | > 100 µM (inactive) | > 100 µM (inactive) | > 100 µM (inactive) | – |
| C=C1C(=O)O[C@H]2C1C[C@@H](O)[C@@]1(C)OC1CC[C@@]1(C)O[C@H]21 (some centres not stated) | – | 13.3 µM (inactive) | 16.1 µM (inactive) | 13.2 µM (inactive) | 14.8 µM (inactive) | 20.6 µM (inactive) | – | 11.6 µM (inactive) | 16.3 µM (inactive) | 15.3 µM (inactive) | > 10 µM (inactive) | 27.2 µM (inactive) | 28.7 µM (inactive) | 13.7 µM (inactive) | 57.9 µM (inactive) | 19.1 µM (inactive) | 17 µM (inactive) | – |
| CCOP(=O)(OCC)C1CC(O)C(=O)N1 (configuration not stated) | – | > 100 µM (inactive) | > 100 µM (inactive) | > 100 µM (inactive) | > 100 µM (inactive) | > 100 µM (inactive) | > 100 µM (inactive) | > 100 µM (inactive) | > 100 µM (inactive) | > 100 µM (inactive) | > 100 µM (inactive) | > 100 µM (inactive) | > 100 µM (inactive) | > 100 µM (inactive) | – | > 100 µM (inactive) | > 100 µM (inactive) | – |
| CC(C)=C=CC(C)(C)NS(=O)(=O)NC(C)(C)C=C=C(C)C | > 100 µM (inactive) | > 100 µM (inactive) | > 100 µM (inactive) | > 100 µM (inactive) | > 100 µM (inactive) | > 100 µM (inactive) | > 100 µM (inactive) | > 100 µM (inactive) | > 100 µM (inactive) | > 100 µM (inactive) | > 100 µM (inactive) | 81.1 µM (inactive) | > 100 µM (inactive) | > 100 µM (inactive) | 80.9 µM (inactive) | – | – | 28.2 µM (inactive) |
| CCn1c(=O)c2c3ccc(O)cc3oc2c2ccc(O)cc21 | 34.9 µM (inactive) | 41 µM (inactive) | 22.5 µM (inactive) | – | 39.2 µM (inactive) | 49.1 µM (inactive) | 34.4 µM (inactive) | 44.7 µM (inactive) | 43.2 µM (inactive) | 31.1 µM (inactive) | 40.4 µM (inactive) | 42.6 µM (inactive) | – | 24.8 µM (inactive) | 34.6 µM (inactive) | 30.2 µM (inactive) | 26.7 µM (inactive) | – |
| CSc1nc(C#N)c(/N=C\N(C)C)n1C | > 100 µM (inactive) | > 100 µM (inactive) | > 100 µM (inactive) | > 100 µM (inactive) | – | > 100 µM (inactive) | > 100 µM (inactive) | > 100 µM (inactive) | > 100 µM (inactive) | > 100 µM (inactive) | > 100 µM (inactive) | > 100 µM (inactive) | > 100 µM (inactive) | > 100 µM (inactive) | > 100 µM (inactive) | > 100 µM (inactive) | > 100 µM (inactive) | > 100 µM (inactive) |
| CC(NC(=N)N)C(=O)O (configuration not stated) | – | > 100 µM (inactive) | > 100 µM (inactive) | > 100 µM (inactive) | > 100 µM (inactive) | > 100 µM (inactive) | > 100 µM (inactive) | > 100 µM (inactive) | > 100 µM (inactive) | > 100 µM (inactive) | > 100 µM (inactive) | > 100 µM (inactive) | > 100 µM (inactive) | > 100 µM (inactive) | – | > 100 µM (inactive) | > 100 µM (inactive) | – |
| COC(=O)CCC(=O)c1ccc2c(c1)CC1(Cc3ccccc3C1)C2 | > 100 µM (inactive) | – | 16.2 µM (inactive) | 36.2 µM (inactive) | 85.5 µM (inactive) | > 100 µM (inactive) | > 100 µM (inactive) | 29.4 µM (inactive) | > 100 µM (inactive) | > 100 µM (inactive) | > 100 µM (inactive) | 41 µM (inactive) | 53.5 µM (inactive) | 56.2 µM (inactive) | – | > 100 µM (inactive) | 42.9 µM (inactive) | – |
| O=C1C2=Cc3ccccc3OC2(O)Oc2cc(O)ccc21 (configuration not stated) | > 100 µM (inactive) | > 100 µM (inactive) | > 100 µM (inactive) | > 100 µM (inactive) | > 100 µM (inactive) | > 100 µM (inactive) | > 100 µM (inactive) | > 100 µM (inactive) | > 100 µM (inactive) | > 100 µM (inactive) | > 100 µM (inactive) | > 100 µM (inactive) | > 100 µM (inactive) | > 100 µM (inactive) | – | > 100 µM (inactive) | – | – |
| CC(=O)OCC1=C(C)C(OC(=O)C(OC(C)=O)[C@@H](NC(=O)c2ccccc2)c2ccccc2)CCC1(C)C (some centres not stated) | > 100 µM (inactive) | > 100 µM (inactive) | > 100 µM (inactive) | > 100 µM (inactive) | > 100 µM (inactive) | > 100 µM (inactive) | > 100 µM (inactive) | > 100 µM (inactive) | – | > 100 µM (inactive) | > 100 µM (inactive) | – | > 100 µM (inactive) | > 100 µM (inactive) | > 100 µM (inactive) | > 100 µM (inactive) | > 100 µM (inactive) | > 100 µM (inactive) |
